Experiment in all cases: Cysteine liganding, probe competition
Holding throughout (format): binding

Assay [1] has as its target T1, ZNF318 Zinc finger protein 318 (Homo sapiens, UniProt Q5VUA4).
T1 construct: Cells were resuspended in cold PBS on ice and sonicated with a probe sonicator to achieve lysis; endogenous in cells
An outline of the steps:
(§1)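 Probe competition in native proteome: 5 mg/ml lysate, compound 1 hr 25° C, then desthiobiotin iodoacetamide (10 mM stock) 1 hr 25° C; acetone ppt, urea/DTT reduction, iodoacetamide alkylation, trypsin, streptavidin pull-down.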

For assay [2], the target named is T2, RPN1 Dolichyl-diphosphooligosaccharide--protein glycosy (Homo sapiens, UniProt P04843).
T2 construct: Cells were resuspended in cold PBS on ice and sonicated with a probe sonicator to achieve lysis; endogenous in cells
T2 sequence (P04843 24-607): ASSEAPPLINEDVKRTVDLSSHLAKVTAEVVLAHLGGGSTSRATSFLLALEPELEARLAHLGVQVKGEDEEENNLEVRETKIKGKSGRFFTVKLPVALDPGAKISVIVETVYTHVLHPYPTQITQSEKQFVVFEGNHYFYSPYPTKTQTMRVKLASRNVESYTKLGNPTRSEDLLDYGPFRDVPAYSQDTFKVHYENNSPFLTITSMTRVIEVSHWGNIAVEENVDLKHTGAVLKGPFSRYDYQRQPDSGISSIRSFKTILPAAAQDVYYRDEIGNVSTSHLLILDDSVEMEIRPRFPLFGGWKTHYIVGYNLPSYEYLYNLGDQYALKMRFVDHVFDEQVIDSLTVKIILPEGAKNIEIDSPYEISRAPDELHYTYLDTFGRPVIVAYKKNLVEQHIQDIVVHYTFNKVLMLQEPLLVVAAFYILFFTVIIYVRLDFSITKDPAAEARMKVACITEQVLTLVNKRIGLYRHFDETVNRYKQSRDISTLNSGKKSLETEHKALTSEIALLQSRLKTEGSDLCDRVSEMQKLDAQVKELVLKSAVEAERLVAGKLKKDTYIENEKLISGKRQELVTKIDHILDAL
An outline of the steps: as §1

The target of assay [3] is T3, PRMT5 Protein arginine N-methyltransferase 5 (Homo sapiens, UniProt O14744).
T3 construct: Cells were resuspended in cold PBS on ice and sonicated with a probe sonicator to achieve lysis; endogenous in cells
T3 sequence (O14744 whole entry): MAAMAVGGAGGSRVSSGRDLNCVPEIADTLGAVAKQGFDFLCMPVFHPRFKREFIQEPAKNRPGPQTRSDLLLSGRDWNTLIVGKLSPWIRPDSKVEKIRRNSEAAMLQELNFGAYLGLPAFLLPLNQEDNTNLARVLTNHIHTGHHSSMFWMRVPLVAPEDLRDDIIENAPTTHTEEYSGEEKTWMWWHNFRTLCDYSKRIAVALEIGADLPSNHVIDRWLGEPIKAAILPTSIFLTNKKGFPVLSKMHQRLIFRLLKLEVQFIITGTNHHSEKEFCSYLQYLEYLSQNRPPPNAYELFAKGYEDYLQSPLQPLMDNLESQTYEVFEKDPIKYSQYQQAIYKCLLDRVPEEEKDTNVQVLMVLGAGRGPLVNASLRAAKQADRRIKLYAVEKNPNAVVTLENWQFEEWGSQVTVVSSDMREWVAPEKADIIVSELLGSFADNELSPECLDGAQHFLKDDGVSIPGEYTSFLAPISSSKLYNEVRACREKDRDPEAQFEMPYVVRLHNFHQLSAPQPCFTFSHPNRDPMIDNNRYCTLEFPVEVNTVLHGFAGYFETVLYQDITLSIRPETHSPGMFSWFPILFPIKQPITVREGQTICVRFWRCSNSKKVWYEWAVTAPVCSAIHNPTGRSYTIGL
T3 sequence (Q9BQA1 whole entry partner): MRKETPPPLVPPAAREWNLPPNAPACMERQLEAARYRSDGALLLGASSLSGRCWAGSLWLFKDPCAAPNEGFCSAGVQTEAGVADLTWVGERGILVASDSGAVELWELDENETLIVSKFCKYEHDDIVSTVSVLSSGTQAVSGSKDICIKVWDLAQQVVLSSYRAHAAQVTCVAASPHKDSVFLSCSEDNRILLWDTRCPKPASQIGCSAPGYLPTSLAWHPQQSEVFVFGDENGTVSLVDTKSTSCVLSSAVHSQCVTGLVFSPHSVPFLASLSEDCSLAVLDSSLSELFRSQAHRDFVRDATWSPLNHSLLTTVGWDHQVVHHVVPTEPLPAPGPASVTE
An outline of the steps:
as §1

Assay [4] addresses T4, KDSR 3-ketodihydrosphingosine reductase (Homo sapiens, UniProt Q06136).
T4 construct: Cells were resuspended in cold PBS on ice and sonicated with a probe sonicator to achieve lysis; endogenous in cells
T4 sequence (Q06136 26-332): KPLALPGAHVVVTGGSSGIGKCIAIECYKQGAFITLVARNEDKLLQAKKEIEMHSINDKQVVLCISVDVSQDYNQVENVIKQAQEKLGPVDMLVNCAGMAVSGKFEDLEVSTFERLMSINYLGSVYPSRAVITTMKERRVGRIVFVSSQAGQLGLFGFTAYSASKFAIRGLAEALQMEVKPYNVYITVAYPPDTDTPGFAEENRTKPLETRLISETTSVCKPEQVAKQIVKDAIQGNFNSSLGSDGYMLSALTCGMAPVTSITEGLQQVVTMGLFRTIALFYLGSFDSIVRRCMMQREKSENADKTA
An outline of the steps: as §1

Assay [5] deals with T5, FASN Fatty acid synthase (Homo sapiens, UniProt P49327).
T5 construct: 200 μL of lysate containing 5 mg/ml proteome was treated with 2 μL of 100× compound stock; endogenous in cells
An outline of the steps: as §1

T1 sequence (Q5VUA4 whole entry): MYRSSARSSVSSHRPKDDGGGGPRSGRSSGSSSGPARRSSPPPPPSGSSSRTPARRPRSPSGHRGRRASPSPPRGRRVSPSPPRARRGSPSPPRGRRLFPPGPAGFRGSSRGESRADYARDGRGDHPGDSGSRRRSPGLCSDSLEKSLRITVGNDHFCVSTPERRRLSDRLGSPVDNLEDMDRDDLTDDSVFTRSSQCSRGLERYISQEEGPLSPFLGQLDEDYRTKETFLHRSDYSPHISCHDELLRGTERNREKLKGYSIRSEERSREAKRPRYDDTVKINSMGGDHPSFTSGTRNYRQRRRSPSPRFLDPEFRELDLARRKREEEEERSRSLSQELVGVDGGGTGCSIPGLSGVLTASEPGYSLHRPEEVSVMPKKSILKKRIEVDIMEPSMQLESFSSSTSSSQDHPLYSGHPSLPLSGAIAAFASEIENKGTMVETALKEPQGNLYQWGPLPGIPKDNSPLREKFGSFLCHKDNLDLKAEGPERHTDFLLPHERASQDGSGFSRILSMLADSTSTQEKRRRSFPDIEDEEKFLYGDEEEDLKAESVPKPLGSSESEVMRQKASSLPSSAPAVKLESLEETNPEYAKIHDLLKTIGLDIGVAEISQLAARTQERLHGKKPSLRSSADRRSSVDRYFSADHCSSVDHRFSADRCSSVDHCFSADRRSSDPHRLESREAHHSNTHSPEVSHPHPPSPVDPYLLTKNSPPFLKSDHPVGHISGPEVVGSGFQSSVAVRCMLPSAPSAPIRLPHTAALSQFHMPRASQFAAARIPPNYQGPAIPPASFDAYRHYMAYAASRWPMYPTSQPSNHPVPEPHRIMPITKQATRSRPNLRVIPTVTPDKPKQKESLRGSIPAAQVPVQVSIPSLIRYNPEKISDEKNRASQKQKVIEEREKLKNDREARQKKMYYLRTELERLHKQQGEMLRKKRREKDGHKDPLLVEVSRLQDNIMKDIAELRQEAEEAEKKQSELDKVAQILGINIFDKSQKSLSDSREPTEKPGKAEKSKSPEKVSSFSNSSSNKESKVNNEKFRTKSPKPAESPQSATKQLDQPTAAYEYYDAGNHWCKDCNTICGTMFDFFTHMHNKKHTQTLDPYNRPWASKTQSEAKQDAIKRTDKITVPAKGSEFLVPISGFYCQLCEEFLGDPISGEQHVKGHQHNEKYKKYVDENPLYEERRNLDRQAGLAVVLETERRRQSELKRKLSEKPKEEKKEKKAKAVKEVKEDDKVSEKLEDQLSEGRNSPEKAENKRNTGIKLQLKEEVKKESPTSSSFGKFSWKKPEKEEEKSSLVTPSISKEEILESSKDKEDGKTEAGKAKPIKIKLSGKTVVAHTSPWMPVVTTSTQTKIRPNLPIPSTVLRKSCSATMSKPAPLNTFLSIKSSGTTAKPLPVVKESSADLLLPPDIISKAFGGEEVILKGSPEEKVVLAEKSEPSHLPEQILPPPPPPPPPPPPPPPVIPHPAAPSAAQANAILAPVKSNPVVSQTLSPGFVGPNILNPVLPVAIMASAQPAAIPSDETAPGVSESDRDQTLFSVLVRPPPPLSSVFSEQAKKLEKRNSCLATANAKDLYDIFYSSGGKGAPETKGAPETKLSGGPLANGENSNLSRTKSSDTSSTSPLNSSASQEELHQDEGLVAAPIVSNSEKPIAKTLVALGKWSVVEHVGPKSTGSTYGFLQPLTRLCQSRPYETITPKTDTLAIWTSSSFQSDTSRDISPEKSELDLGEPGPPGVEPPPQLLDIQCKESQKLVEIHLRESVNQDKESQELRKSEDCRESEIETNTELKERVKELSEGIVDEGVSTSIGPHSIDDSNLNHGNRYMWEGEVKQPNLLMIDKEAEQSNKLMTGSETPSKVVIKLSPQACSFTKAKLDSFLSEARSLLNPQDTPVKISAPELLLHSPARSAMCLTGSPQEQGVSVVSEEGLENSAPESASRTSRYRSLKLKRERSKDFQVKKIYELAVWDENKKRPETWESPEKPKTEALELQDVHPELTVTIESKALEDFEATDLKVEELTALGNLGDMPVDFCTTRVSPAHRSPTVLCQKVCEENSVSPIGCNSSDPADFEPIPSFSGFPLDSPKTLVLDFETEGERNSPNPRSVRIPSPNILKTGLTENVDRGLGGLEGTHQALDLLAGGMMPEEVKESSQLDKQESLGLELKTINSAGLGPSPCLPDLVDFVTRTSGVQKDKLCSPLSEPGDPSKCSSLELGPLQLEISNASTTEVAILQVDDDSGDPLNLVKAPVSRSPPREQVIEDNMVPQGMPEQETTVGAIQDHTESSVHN

With `COc1ccc2c(c1)CCCN2C(=O)CCl` [KB02], the Liganded result in assay [1] (ZNF318 Res# 1681, uniprot Q5VUA4) was “YES”; in assay [2] (RPN1 Res# 477, uniprot P04843), “YES”; in assay [3] (PRMT5 Res# 278, uniprot O14744), “YES”; in assay [4] (KDSR Res# 121, uniprot Q06136) it was “YES”; in assay [5] (FASN Res# 161, uniprot P49327) it was “YES”.
As for `O=C(CCl)Nc1cc(C(F)(F)F)cc(C(F)(F)F)c1` [KBO3], the “100 Max” value in assay [1] (uniprot Q5VUA4) is listed as −1.63; in assay [2] (uniprot P04843), 9.24; in assay [3] (uniprot O14744, in % (unit assumed)), 16.62; in assay [4] (uniprot Q06136, in % (unit assumed)), −22.72; in assay [5] (uniprot P49327), −26.25. The 100 ave in assay [1] (uniprot Q5VUA4) is listed as −8.115; in assay [2] (uniprot P04843), −5.035; in assay [3] (uniprot O14744), 16.62; in assay [4] (uniprot Q06136), −22.72; in assay [5] (uniprot P49327) it was −26.25. For the same compound, the “500 Max” value in assay [1] (uniprot Q5VUA4) is given as 55.07; in assay [2] (uniprot P04843, in % (unit assumed)) it was 28.71; in assay [3] (uniprot O14744), 45.47. Besides, the 500 ave in assay [1] (uniprot Q5VUA4) was determined as 40.555; in assay [2] (uniprot P04843), 23.85; in assay [3] (uniprot O14744), 45.47.
